Measured values as given in US9815787B2, “Sulfonamide derivative or pharmaceutically acceptable acid addition salt thereof” (UNIVERSITY OF TSUKUBA, priority 2013, dated 2017).

Target: T1, OX2R (Homo sapiens, UniProt O43614)
T1 construct: expressed in transfected cells; host or cells: CHO (Chinese hamster ovary) cells constitutively expressing the OX2R gene and NFAT-luciferase (CHOOX2R)
T1 sequence (O43614 1-444): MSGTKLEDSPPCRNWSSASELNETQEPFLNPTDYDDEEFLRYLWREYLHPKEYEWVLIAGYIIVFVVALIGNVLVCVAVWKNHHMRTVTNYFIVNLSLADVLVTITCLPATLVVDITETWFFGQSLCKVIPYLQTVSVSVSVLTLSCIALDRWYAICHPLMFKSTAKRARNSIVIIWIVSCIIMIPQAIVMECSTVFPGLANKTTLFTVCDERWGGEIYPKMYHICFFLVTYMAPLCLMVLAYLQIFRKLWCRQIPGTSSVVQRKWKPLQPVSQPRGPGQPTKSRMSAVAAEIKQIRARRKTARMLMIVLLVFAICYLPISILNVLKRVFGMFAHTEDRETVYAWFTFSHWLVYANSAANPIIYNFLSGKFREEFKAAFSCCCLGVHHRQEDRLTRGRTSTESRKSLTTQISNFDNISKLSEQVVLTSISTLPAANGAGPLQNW
Assay: Evaluation of agonist activity against OX2R (CHOOX2R cells, Fura2AM fluorescence, FDSS3000)
Assay type: cell-based
Method: Evaluation of Agonist Activity Against OX2R
NFAT-luciferase gene and OX2R gene were each constitutively expressed in CHO cell, which is a cell line derived from Chinese hamster ovary to establish a cell line (CHOOX2R). The cells thereof were sown on a 96 well plate at 10000 cells/well, and cultured in a 5% FBS-added DMEM medium for 48 hr. […] After washing, HEPES buffer (75 μL) was added, a test compound solution (25 μL) was added, and changes in the fluorescence intensity were measured by FDSS3000 (Hamamatsu Photonics K.K.). The test compound was dissolved in DMSO (final concentration of DMSO was 1%), and diluted with HEPES buffer to a final concentration of 0.1 μM, 1.0 μM or 10 μM.

[1] = test compound 0.1 μM; relative to orexin-A as full agonist (100%); CHOOX2R cells
[2] = test compound 1.0 μM; relative to orexin-A as full agonist (100%); CHOOX2R cells
[3] = test compound 10 μM; relative to orexin-A as full agonist (100%); CHOOX2R cells
[4] = test compound 0.1 μM; CHOOX2R cells; relative to orexin-A as full agonist (100%)
[5] = test compound 1.0 μM; CHOOX2R cells; relative to orexin-A as full agonist (100%)
[6] = test compound 10 μM; CHOOX2R cells; relative to orexin-A as full agonist (100%)
[7] = OX2R agonist activity; CHOOX2R cells
[8] = conversion with orexin-A as full agonist (maximum agonist activity 100%)

SMILES	Response (0.1 μM (%)) [1] [%]	Response (1.0 μM (%)) [2] [%]	Response (10 μM (%)) [3] [%]	Response (0.1 μM (%)) [4] [%]	Response (1.0 μM (%)) [5] [%]	Response (10 μM (%)) [6] [%]	EC50 [7] [nM]	Emax [8] [%]
COc1ccccc1C(=O)NCCNc1cccc(NS(=O)(=O)c2cc(-c3cc(Cl)cc(Cl)c3)ccc2OC)c1 [Example 27, N-(2-((3-(3′,5′-dichloro-4-methoxy-[1,1′-biphenyl]-3-ylsulfonamide)phenyl)amino)ethyl)-2-methoxybenzamide]	<5	<5	<5	–	–	–	–	–
COCCN(C)C(=O)c1cccc(-c2ccc(OC)c(S(=O)(=O)Nc3cccc(NCCNC(=O)c4ccccc4OC)c3)c2)c1 [Example 77, 4′-methoxy-3′-(N-(3-((2-(2-methoxybenzamido)ethyl)amino)phenyl)sulfamoyl)-N-(2-methoxyethyl)-N-methyl-[1,1′-biphenyl]-3-carboxamide]	–	–	–	42	91	82	–	–
COc1ccc(-c2cccc(C(=O)N3CCCC3)c2)cc1S(=O)(=O)Nc1cccc(NCCNC(=O)c2sccc2Cl)c1 [Example 89, 3-chloro-N-(2-((3-(4-methoxy-3′-(pyrrolidine-1-carbonyl)-[1,1′-biphenyl]-3-ylsulfonamido)phenyl)amino)ethyl)thiophene-2-carboxamide]	–	–	–	93	96	97	–	–
COc1ccc(-c2cccc(C(=O)N3CCCC3)c2)cc1S(=O)(=O)Nc1cccc(NCCNC(=O)c2c(F)cccc2F)c1 [Example 88, 2,6-difluoro-N-(2-((3-(4-methoxy-3′-(pyrrolidine-1-carbonyl)-[1,1′-biphenyl]-3-ylsulfonamido)phenyl)amino)ethyl)benzamide]	–	–	–	76	100	86	–	–
COc1cccc(C(=O)NCCNc2cccc(NS(=O)(=O)c3cc(-c4cccc(C(=O)N5CCC5)c4)ccc3OC)c2)n1 [Example 83, N-(2-((3-(3′-(azetidine-1-carbonyl)-4-methoxy-[1,1′-biphenyl]-3-ylsulfonamido)phenyl)amino)ethyl)-6-methoxypicolinamide]	–	–	–	<5	10	71	–	–
COc1ccc(-c2ccccc2F)cc1S(=O)(=O)Nc1cccc(NCCNC(=O)c2ccccc2O)c1 [Example 6, N-(2-((3-(2′-fluoro-4-methoxy-[1,1′-biphenyl]-3-ylsulfonamide)phenyl)amino)ethyl)-2-hydroxybenzamide]	<5	<5	7	–	–	–	–	–
COc1ccc(-c2cccc(C(=O)N3CCC3)c2)cc1S(=O)(=O)Nc1cccc(NCCNC(=O)c2cccc(F)c2)c1 [Example 84, N-(2-((3-(3′-(azetidine-1-carbonyl)-4-methoxy-[1,1′-biphenyl]-3-ylsulfonamido)phenyl)amino)ethyl)-3-fluorobenzamide]	–	–	–	7	58	70	–	–
COc1ccccc1C(=O)NCCNc1cccc(NS(=O)(=O)c2cc(-c3cccc(CO)c3)ccc2OC)c1 [Example 39, N-(2-((3-(3′-(hydroxymethyl)-4-methoxy-[1,1′-biphenyl]-3-ylsulfonamide)phenyl)amino)ethyl)-2-methoxybenzamide]	–	–	–	<5	27	102	–	–
COc1cccc(C(=O)NCCNc2cccc(NS(=O)(=O)c3cc(-c4ccccc4Cl)ccc3OC)c2)c1 [Example 11, N-(2-((3-(2′-chloro-4-methoxy-[1,1′-biphenyl]-3-ylsulfonamide)phenyl)amino)ethyl)-3-methoxybenzamide]	<5	17	23	–	–	–	–	–
COc1cccc(C(=O)NCCNc2cccc(NS(=O)(=O)c3cc(-c4cccc(OC)c4)ccc3OC)c2)c1 [Example 31, N-(2-((3-(3′,4-dimethoxy-[1,1′-biphenyl]-3-ylsulfonamide)phenyl)amino)ethyl)-3-methoxybenzamide]	6	67	103	–	–	–	–	–
COc1ccc(-c2cccc(C(=O)N3CCCC3)c2)cc1S(=O)(=O)Nc1cccc(NCCNC(=O)c2ccccc2Cl)c1 [Example 87, 2-chloro-N-(2-((3-(4-methoxy-3′-(pyrrolidine-1-carbonyl)-[1,1′-biphenyl]-3-ylsulfonamido)phenyl)amino)ethyl)benzamide]	–	–	–	42	90	80	–	–
COc1ccccc1C(=O)NCCNc1cccc(NS(=O)(=O)c2cc(-c3c(F)cccc3F)ccc2OC)c1 [Example 17, N-(2-((3-(2′,6′-difluoro-4-methoxy-[1,1′-biphenyl]-3-ylsulfonamide)phenyl)amino)ethyl)-2-methoxybenzamide]	<5	18	182	–	–	–	–	–
COc1ccccc1C(=O)NCCN(C)c1cccc(NS(=O)(=O)c2cc(-c3cccc(C(=O)N(C)C)c3)ccc2OC)c1 [Example 112, 4′-methoxy-3′-(N-(3-((2-(2-methoxybenzamido)ethyl) (methyl)amino)phenyl)sulfamoyl)-N,N-dimethyl-[1,1′-biphenyl]-3-carboxamide]	<5	131	139	–	–	–	–	–
COc1ccc(-c2cccc(C(=O)N(C)C)c2)cc1S(=O)(=O)Nc1cccc(NCCNC(=O)c2cccc(Cl)n2)c1 [Example 55, 6-chloro-N-(2-((3-(3′-(dimethylcarbamoyl)-4-methoxy-[1,1′-biphenyl]-3-ylsulfonamido)phenyl)amino)ethyl)picolinamide]	–	–	–	23	144	122	–	–
CCOc1ccc(-c2cccc(C(=O)N(C)C)c2)cc1S(=O)(=O)Nc1cccc(NCCNC(=O)c2ccccc2OC)c1 [Example 108, 4′-ethoxy-3′-(N-(3-((2-(2-methoxybenzamido)ethyl)amino)phenyl)sulfamoyl)-N,N-dimethyl-[1,1′-biphenyl]-3-carboxamide]	44	81	82	–	–	–	–	–
COc1ccccc1C(=O)NCCNc1cccc(NS(=O)(=O)c2cc(-c3cccc(C(=O)N4CCCC4)c3)ccc2OC)c1 [Example 75, 2-methoxy-N-(2-((3-(4-methoxy-3′-(pyrrolidine-1-carbonyl)-1-[1,1′-biphenyl]-3-ylsulfonamide)phenyl)amino)ethyl)benzamide]	–	–	–	49	87	76	77	87
COc1ccc(-c2ccccc2F)cc1S(=O)(=O)Nc1cccc(NCCNC(=O)c2ccccn2)c1 [Example 14, N-(2-((3-(2′-fluoro-4-methoxy-[1,1′-biphenyl]-3-ylsulfonamide)phenyl)amino)ethyl)picolinamide]	<5	<5	8	–	–	–	–	–
COc1ccccc1C(=O)NCCNc1cccc(NS(=O)(=O)c2cc(-c3ccccc3Cl)ccc2OC)c1 [Example 10, N-(2-((3-(2′-chloro-4-methoxy-[1,1′-biphenyl]-3-ylsulfonamide)phenyl)amino)ethyl)-2-methoxybenzamide]	<5	<5	41	–	–	–	–	–
COc1ccccc1C(=O)NCCNc1cccc(NS(=O)(=O)c2cc(-c3ccccc3C(=O)N(C)C)ccc2OC)c1 [Example 79, 4′-methoxy-3′-(N-(3-((2-(2-methoxybenzamido)ethyl)amino)phenyl)sulfamoyl)-N,N-dimethyl-[1,1′-biphenyl]-2-carboxamide]	–	–	–	<5	18	34	–	–
COc1cccc(C(=O)NCCNc2cccc(NS(=O)(=O)c3cc(-c4cccc(Cl)c4)ccc3OC)c2)c1 [Example 29, N-(2-((3-(3′-chloro-4-methoxy-[1,1′-biphenyl]-3-ylsulfonamide)phenyl)amino)ethyl)-3-methoxybenzamide]	<5	16	73	–	–	–	800	54
COc1ccccc1C(=O)NCCNc1cccc(NS(=O)(=O)c2cc(-c3cccc(C(=O)N(C)C)c3)ccc2C)c1 [Example 106, 3′-(N-(3-((2-(2-methoxybenzamido)ethyl)amino)phenyl)sulfamoyl)-N,N,4′-trimethyl-[1,1′-biphenyl]-3-carboxamide]	<5	27	39	–	–	–	–	–
